Assay results as given in patent US20250101041A1, “POSITIVE ALLOSTERIC MODULATORS OF THE MUSCARINIC ACETYLCHOLINE RECEPTOR M4” (Vanderbilt University, priority 2022, published 2025).

Target: T1, human mAChR M4 (Homo sapiens, UniProt P08173)
T1 construct: expressed in transfected cells; host or cells: CHO-K1 (American Type Culture Collection), stably expressing hM4 and Gqi5
T1 sequence (P08173 1-479): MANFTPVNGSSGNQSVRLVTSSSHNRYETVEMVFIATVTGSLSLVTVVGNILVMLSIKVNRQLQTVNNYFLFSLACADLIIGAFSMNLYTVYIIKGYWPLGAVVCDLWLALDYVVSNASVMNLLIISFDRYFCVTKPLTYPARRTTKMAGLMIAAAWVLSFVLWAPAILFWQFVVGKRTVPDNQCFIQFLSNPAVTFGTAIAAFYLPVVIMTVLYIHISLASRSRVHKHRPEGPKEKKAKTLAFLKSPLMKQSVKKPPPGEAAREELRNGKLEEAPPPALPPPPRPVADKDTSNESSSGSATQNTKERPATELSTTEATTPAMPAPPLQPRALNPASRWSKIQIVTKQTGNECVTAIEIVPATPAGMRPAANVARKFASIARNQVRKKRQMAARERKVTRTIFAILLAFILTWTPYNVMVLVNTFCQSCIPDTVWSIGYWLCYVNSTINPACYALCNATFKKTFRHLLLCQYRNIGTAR
Test: mAChR M4 cell-based functional assay: calcium mobilization (Fluo-4, FDSS), potentiation of EC20 acetylcholine response in hM4-Gqi5 CHO-K1 cells
Conditions: human M4; for Emax at 30 µM: CHO-K1, % ACh maximum at 30 μM; for EC50: potentiation of EC20 acetylcholine response, calcium mobilization
In short: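 Readout is the fluorescence-ratio rise at 1 Hz on FDSS, with PAM activity taken as concentration-dependent enhancement of the EC20 acetylcholine response, fitted four-parameter for EC50/Emax. hM4-Gqi5 CHO-K1 cells carried Fluo-4 AM dye; test compounds (11 points, 1:3) preceded EC20 acetylcholine additions at 144 s and 230 s.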

Structure (SMILES) | Emax at 30 µM | EC50
Cc1cncc(-c2cnc3c(c2)CN(c2nn4c(=O)ccnc4c(C)c2C)CC3)c1 [Compound 1-147, 8,9-dimethyl-7-(3-(5-methylpyridin-3-yl)-7,8-dihydro-1,6-naphthyridin-6(5H)-yl)-4H-pyrimido[1,2-b]pyridazin-4-one] | 80% | 305 nM
Cc1c(N2CCc3ncc(-c4cccnc4)cc3C2)nn2c(=O)ccnc2c1C [Compound 1-148, 8,9-dimethyl-7-(3-(pyridin-3-yl)-7,8-dihydro-1,6-naphthyridin-6(5H)-yl)-4H-pyrimido[1,2-b]pyridazin-4-one] | 89% | 344 nM
Cc1c(N2CCc3ncc(-c4cnn(C5CCCCO5)c4)cc3C2)nn2c(=O)ccnc2c1C (stereo not shown) [Compound 1-150, 8,9-dimethyl-7-(3-(1-(tetrahydro-2H-pyran-2-yl)-1H-pyrazol-4-yl)-7,8-dihydro-1,6-naphthyridin-6(5H)-yl)-4H-pyrimido[1,2-b]pyridazin-4-one] | 74% | 511 nM
Cc1c(N2CCc3ncc(-c4ccnn4C4COC4)cc3C2)nn2c(=O)ccnc2c1C [Compound 1-151, 8,9-dimethyl-7-(3-(1-(oxetan-3-yl)-1H-pyrazol-5-yl)-7,8-dihydro-1,6-naphthyridin-6(5H)-yl)-4H-pyrimido[1,2-b]pyridazin-4-one] | 75% | 3210 nM
Cc1c(N2CCc3ncc(-c4cncc(C(F)(F)F)c4)cc3C2)nn2c(=O)cc(C(F)F)nc2c1C [Compound 1-154, 2-(difluoromethyl)-8,9-dimethyl-7-(3-(5-(trifluoromethyl)pyridin-3-yl)-7,8-dihydro-1,6-naphthyridin-6(5H)-yl)-4H-pyrimido[1,2-b]pyridazin-4-one] | 80% | 401 nM
Cc1c(N2CCc3ncc(-c4cccnc4)cc3C2)nn2c(=O)cc(C(F)F)nc2c1C [Compound 1-155, 2-(difluoromethyl)-8,9-dimethyl-7-(3-(pyridin-3-yl)-7,8-dihydro-1,6-naphthyridin-6(5H)-yl)-4H-pyrimido[1,2-b]pyridazin-4-one] | 91% | 62 nM
Cc1c(N2CCc3ncc(-c4cncc(C#N)c4)cc3C2)nn2c(=O)cc(C(F)F)nc2c1C [Compound 1-157, 5-(6-(2-(difluoromethyl)-8,9-dimethyl-4-oxo-4H-pyrimido[1,2-b]pyridazin-7-yl)-5,6,7,8-tetrahydro-1,6-naphthyridin-3-yl)nicotinonitrile] | 100% | 426 nM

Further compounds by falling EC50, results first:

Emax at 30 µM | EC50 | Structure (SMILES)
67% | 584 nM | Cc1c(N2CCc3ncc(-c4cnn(-c5ccccn5)c4)cc3C2)nn2c(=O)ccnc2c1C [Compound 1-153, 8,9-dimethyl-7-(3-(1-(pyridin-2-yl)-1H-pyrazol-4-yl)-7,8-dihydro-1,6-naphthyridin-6(5H)-yl)-4H-pyrimido[1,2-b]pyridazin-4-one]
95% | 204 nM | Cc1c(N2CCc3ncc(-c4cncc(F)c4)cc3C2)nn2c(=O)cc(C(F)F)nc2c1C [Compound 1-156, 2-(difluoromethyl)-7-(3-(5-fluoropyridin-3-yl)-7,8-dihydro-1,6-naphthyridin-6(5H)-yl)-8,9-dimethyl-4H-pyrimido[1,2-b]pyridazin-4-one]
80% | 133 nM | Cc1c(N2CCc3ncc(-c4cnn(C5CC5)c4)cc3C2)nn2c(=O)ccnc2c1C [Compound 1-152, 7-(3-(1-cyclopropyl-1H-pyrazol-4-yl)-7,8-dihydro-1,6-naphthyridin-6(5H)-yl)-8,9-dimethyl-4H-pyrimido[1,2-b]pyridazin-4-one]
89% | 68 nM | Cc1cc(F)ncc1-c1cnc2c(c1)CN(c1nn3c(=O)ccnc3c(C)c1C)CC2 [Compound 1-149, 7-(3-(6-Fluoro-4-methylpyridin-3-yl)-7,8-dihydro-1,6-naphthyridin-6(5H)-yl)-8,9-dimethyl-4H-pyrimido[1,2-b]pyridazin-4-one]
